Results on 21 compounds are retold here after US20130040908A1, “SUBSTITUTION DERIVATIVES OF N6-BENZYLADENOSINE-5' -MONOPHOSPHATE, METHODS OF PREPARATION THEREOF, USE THEREOF AS MEDICAMENTS, AND THERAPEUTIC PREPARATIONS CONTAINING THESE COMPOUNDS” (BIOAPEX, S.R.O., priority 2010, published 2013).

Each structure is given as a SMILES string.

Test [1] concerns HL-60 (promyelocytic leukemia). Nature of the test: Calcein AM cytotoxicity assay, HL60. In kind it is cell-based, human. The note with it: HL60, 72 hours. The text has this: (§1) Because toxic compounds negatively influence metabolic processes in cells, many standard cytotoxicity assays are based on measurement of metabolisation rate of various artificial substrates. Resulting product is then quantified e.g. by means of spectrometry. The assays can be easily modified for use in 96-well plates. For evaluation of cytotoxic effect of the novel substituted 9-substituted cytokinin derivatives of this invention, a microtiter assay based on quantification of metabolisation of Calcein AM was used. The assay is widely used in drug screening programs and in chemosensitivity testing. In the living cells, Calcein AM is enzymatically hydrolysed and accumulation of resulting calcein is manifested by green fluorescence.
(§2) Normal human fibroblasts BJ were used as a control for routine screening of the compounds. The cells were kept in Nunc/Corning 80 cm^2 plastic bottles and grown in cell culture medium (DMEM containing 5 g/l glucose, 2 mM glutamine, 100 U/ml penicillin, 100 μg/ml streptomycine, 10% fetal bovine serum and sodium hydrogencarbonate), the compounds were prepared according to the procedure of the present invention.
(§3) The cell suspensions were prepared and diluted according to the particular cell type and the expected target cell density (2.500-30.000 cells per well based on cell growth characteristics) and pippetted (80 μl) into 96-well plates. […] Tested compound was added in total volume of 20 μl of water at time zero. Usually, test compound was evaluated at six 3-fold dilutions. […] All drug concentrations were tested in triplicates. […] At the end of incubation period Calcein AM in PBS was added into final concentration of 1 μg/ml. After another 1 hour of incubation fluorescence (FD) was measured with the Labsystem FIA Reader Fluoroscan Ascent (UK). Growth inhibition (GI) was estimated using the following equitation: GI=(mean FDdrug exposed wells−mean FDblank)/(mean FDcontrol wells−mean FDblank)×100%.

The subject of test [2] is CEM (T-lymphoblastoid leukemia). Nature of the test: Calcein AM cytotoxicity assay, CEM. In kind it is cell-based. The settings on record: 72 hours.
Excerpt: as §1, §2, §3

Test [3] concerns K-562 (human erythroleukemia). Nature of the test: Calcein AM cytotoxicity assay, K-562. The settings on record: K-562, 72 hours. In kind it is cell-based.
Excerpt: as §1, §2, §3

For another test, the system named is Human lymphocytes. Put plainly: Immunosuppressive activity, 3H-thymidine incorporation in concanavalin A activated lymphocytes. In kind it is cell-based. The note with it: 72 hours, [3H]-TdR. The text has this:
One of the most important parameters of specific cellular immunity is the proliferative response of lymphocytes to antigens or polyclonal mitogens. The majority of normal mammalian peripheral lymphocytes comprise resting cells. Antigens or nonspecific polyclonal mitogens have the capacity to activate lymphoid cells and this is accompanied by dramatic changes of intracellular metabolism (mitochondrial activity, protein synthesis, nucleic acids synthesis, formation of blastic cells and cellular proliferation). […] Variety of in vitro assays was developed to measure proliferative response of lymphocytes. The most commonly used is ^3H-thymidine incorporation method.
During cell proliferation, DNA has to be replicated before the cell is divided into two daughter cells. This close association between cell doublings and DNA synthesis is very attractive for assessing cell proliferation. If labelled DNA precursors are added to the cell culture, cells that are about to divide incorporate the labelled nucleotide into their DNA. Traditionally, those assays usually involve the use of radiolabelled nucleosides, particularly tritiated thymidine ([^3H]-TdR). The amount of [^3H]-TdR incorporated into the cellular DNA is quantified by liquid scintillation counting. Human heparinized peripheral blood was obtained from healthy volunteers by cubital vein punction. The blood was diluted in PBS (1:3) and mononuclear cells were separated by centrifugation in Ficoll-Hypaque density gradient (Pharmacia, 1.077 g/ml) at 2200 rpm for 30 minutes. Following centrifugation, lymphocytes were washed in PBS and resuspended in cell culture medium (RMPI 1640, 2 mM glutamine, 100 U/ml penicillin, 100 μg/ml streptomycin, 10% fetal calf serum and sodium bicarbonate).
The cells were diluted at target density of 1.100.000 cells/ml and were added by pipette (180 μl) into 96-well microtiter plates. Four-fold dilutions of the intended test concentration were added at time zero in 20 μl aliquots to the microtiter plate wells. Usually, test compound was evaluated at six 4-fold dilutions. In routine testing, the highest well concentration was 266.7 μM. All drug concentrations were examined in duplicates. All wells with exception of unstimulated controls were activated with 50 of concanavalin A (25 μg/ml). Incubations of cells with test compounds lasted for 72 hours at 37° C., in 5% CO2 atmosphere and 100% humidity. At the end of incubation period, the cells were assayed by using the [^3H]-TdR:
Cell cultures were incubated with 0.5 μCi (20 μl of stock solution 500 μCi/ml per well for 6 hours at 37° C. and 5% CO2. The automated cell harvester was used to lyse cells in water and adsorb the DNA onto glass-fiber filters in the format of microtiter plate. The DNA incorporated [^3H]-TdR was retained on the filter while unincorporated material passes through. The filters were dried at room temperature overnight, sealed into a sample bag with 10-12 ml of scintillant. The amount of [^3H]-TdR present in each filter (in cpm) was determined by scintillation counting in a Betaplate liquid scintillation counter. The effective dose of immunosuppressant (ED) was calculated using the following equation: ED=(CCPMdrug exposed well/mean CCPMcontrol wells)×100%. The ED50 value, the drug concentration inhibiting proliferation of 50% of lymphocytes, was calculated from the obtained dose response curves.

For the next test, the system named is MCF-7 (breast carcinoma). Nature of the test: Calcein AM cytotoxicity assay, MCF7. In kind it is cell-based. The settings on record: MCF7, 72 hours.
Excerpt: as §1, §2, §3

Take `O=P(O)(O)OC[C@H]1O[C@@H](n2cnc3c(NCc4ccc(F)cc4Cl)ncnc32)[C@H](O)[C@@H]1O` [2-chloro-4-fluorobenzylamino, 6-(2-chloro-4-fluorobenzylamino)purine riboside-5′-monophosphate]: the GI50 in test [1] is 7.9 µM; in test [2], 12.7 µM; in test [3], 9.6 µM.
Turning to `O=P(O)(O)OC[C@H]1O[C@@H](n2cnc3c(NCc4cccc(Cl)c4O)ncnc32)[C@H](O)[C@@H]1O` [2-hydroxy-3-chlorobenzylamino, 6-(2-hydroxy-3-chlorobenzylamino)purine riboside-5′-monophosphate], in the test with Human lymphocytes, the “Human lymphocytes ED50” value worked out at 3.2 µM.
Still for that read-out and setting: the value for `COc1ccc(CNc2ncnc3c2ncn3[C@@H]2O[C@H](COP(=O)(O)O)[C@@H](O)[C@H]2O)c(O)c1` [2-hydroxy-4-methoxybenzylamino, 6-(2-hydroxy-4-methoxybenzylamino)purine riboside-5′-monophosphate] was 2.1 µM; that for `O=P(O)(O)OC[C@H]1O[C@@H](n2cnc3c(NCc4ccc(O)c(O)c4)ncnc32)[C@H](O)[C@@H]1O` [3,4-dihydroxybenzylamino, 6-(3,4-dihydroxybenzylamino)purine riboside-5′-monophosphate] was 9.4 µM.
For the compound `O=P(O)(O)OC[C@H]1O[C@@H](n2cnc3c(NCc4ccccc4F)ncnc32)[C@H](O)[C@@H]1O` [Compound 1, 6-(2-fluorobenzylamino)purine riboside-5′-monophosphate], the values for the GI50 in test [1], in test [2] and in test [3] were 3.3 µM, 3.9 µM and 31.7 µM, respectively. Moreover, in the test on Human lymphocytes, the “Human lymphocytes ED50” value came out at 6.3 µM.
As to `O=P(O)(O)OC[C@H]1O[C@@H](n2cnc3c(NCc4ccccc4Cl)ncnc32)[C@H](O)[C@@H]1O` [Compound 4, 6-(2-chlorobenzylamino)purine riboside-5′-monophosphate], the GI50 in test [1] is 1.4 µM; in test [2] it was 1.9 µM; in test [3], 56 µM. Further, in the test with Human lymphocytes, the “Human lymphocytes ED50” value came out at 8.7 µM.
The matching figures for `O=P(O)(O)OC[C@H]1O[C@@H](n2cnc3c(NCc4cccc(Cl)c4)ncnc32)[C@H](O)[C@@H]1O` [Compound 5, 6-(3-chlorobenzylamino)purine riboside-5′-monophosphate]: 0.5 µM, 1.5 µM, 23.4 µM and 3.2 µM.
As for `O=P(O)(O)OC[C@H]1O[C@@H](n2cnc3c(NCc4ccc(Cl)cc4)ncnc32)[C@H](O)[C@@H]1O` [Compound 6, 6-(4-chlorobenzylamino)purine riboside-5′-monophosphate], the GI50 was 4.9 µM in test [2] and 12.6 µM in test [3]. In addition, the “Human lymphocytes ED50” value with Human lymphocytes was 3.3 µM.
For the compound `O=P(O)(O)OC[C@H]1O[C@@H](n2cnc3c(NCc4ccccc4Br)ncnc32)[C@H](O)[C@@H]1O` [Compound 7, 6-(2-bromobenzylamino)purine riboside-5′-monophosphate], the GI50 is 5.9 µM in test [1], 2.3 µM in test [2], 9.7 µM in test [3] and 45.6 µM in the test on MCF-7 (breast carcinoma).
Take `O=P(O)(O)OC[C@H]1O[C@@H](n2cnc3c(NCc4cccc(Br)c4)ncnc32)[C@H](O)[C@@H]1O` [Compound 8, 6-(3-bromoobenzylamino)purine riboside-5′-monophosphate]: the GI50 in test [1] was 4.2 µM; in test [2], 5.1 µM; in test [3] it was 19.1 µM.
For `O=P(O)(O)OC[C@H]1O[C@@H](n2cnc3c(NCc4ccc(Br)cc4)ncnc32)[C@H](O)[C@@H]1O` [Compound 9, 6-(4-bromobenzylamino)purine riboside-5′-monophosphate], the GI50 in test [1] was 41.3 µM; in test [2], 17.6 µM; in test [3], 49.9 µM.
`COc1cccc(CNc2ncnc3c2ncn3[C@@H]2O[C@H](COP(=O)(O)O)[C@@H](O)[C@H]2O)c1` [Compound 16, 6-(3-methoxybenzylamino)purine riboside-5′-monophosphate]: the GI50 in test [1] was 5.1 µM; in test [2], 4.6 µM; in test [3], 122 µM; in the test on MCF-7 (breast carcinoma) it was 48.1 µM.
For the compound `O=P(O)(O)OC[C@H]1O[C@@H](n2cnc3c(NCc4ccc(O)cc4)ncnc32)[C@H](O)[C@@H]1O` [Compound 23, 6-(4-hydroxybenzylamino)purine riboside-5′-monophosphate], the GI50 in test [1] is 9.7 µM; in test [2], 19.4 µM.
Take `O=P(O)(O)OC[C@H]1O[C@@H](n2cnc3c(NCc4ccc(Cl)cc4Cl)ncnc32)[C@H](O)[C@@H]1O` [Compound 24]: the GI50 in test [1] is 72.4 µM; in test [2], 81.2 µM; in test [3], 81.5 µM; with MCF-7 (breast carcinoma), 122 µM.
As to `COc1cccc(CNc2ncnc3c2ncn3[C@@H]2O[C@H](COP(=O)(O)O)[C@@H](O)[C@H]2O)c1OC` [Compound 31, 6-(2,3-dimethoxybenzylamino)purine riboside-5′-monophosphate], in test [1], the GI50 is 91 µM.
Still for that read-out and setting: the value for `COc1ccc(CNc2ncnc3c2ncn3[C@@H]2O[C@H](COP(=O)(O)O)[C@@H](O)[C@H]2O)c(OC)c1` [Compound 32, 6-(2,4-dimethoxybenzylamino)purine riboside-5′-monophosphate] was 41 µM.
On to `COc1cc(CNc2ncnc3c2ncn3[C@@H]2O[C@H](COP(=O)(O)O)[C@@H](O)[C@H]2O)cc(OC)c1` [Compound 34, 6-(3,5-dimethoxybenzylamino)purine riboside-5′-monophosphate], for which the GI50 in test [1] was 19.8 µM.
For `O=P(O)(O)OC[C@H]1O[C@@H](n2cnc3c(NCc4ccc(F)cc4F)ncnc32)[C@H](O)[C@@H]1O` [Compound 36, 6-(2,4-difluorobenzylamino)purine riboside-5′-monophosphate], the GI50 was 2.8 µM in test [1], 4.9 µM in test [2] and 5.9 µM in test [3].
Turning to `O=P(O)(O)OC[C@H]1O[C@@H](n2cnc3c(NCc4cc(F)cc(F)c4)ncnc32)[C@H](O)[C@@H]1O` [Compound 37, 6-(3,5-difluorobenzylamino)purine riboside-5′-monophosphate], the results for the GI50 in test [1] and in test [2] were 6.9 µM and 21.1 µM, respectively.
The matching figures for `O=P(O)(O)OC[C@H]1O[C@@H](n2cnc3c(NCc4ccc(F)c(F)c4F)ncnc32)[C@H](O)[C@@H]1O` [Compound 38, 6-(2,3,4-trifluorobenzylamino)purine riboside-5′-monophosphate]: 11.3 µM and 58.6 µM.
Take `O=P(O)(O)OC[C@H]1O[C@@H](n2cnc3c(NCc4c(F)ccc(F)c4F)ncnc32)[C@H](O)[C@@H]1O` [Compound 40, 6-(2,3,6-trifluorobenzylamino)purine riboside-5′-monophosphate]: in test [1], the GI50 was 11.3 µM.
